Entries after “also recorded” stand apart in the source; their conditions may differ. Counter-ions that a name gives are not always drawn. Like-named read-outs stand apart in the source and are kept apart here. Non-standard residues stand in square brackets, D forms with d. Residues, ends and D or L forms follow the SMILES beside them. *: point of attachment. pNA = O=[N+]([O-])c1ccc(N*)cc1; Tos = Cc1ccc(S(=O)(=O)*)cc1; Bz = O=C(c1ccccc1)*
T1: recombinant ISP1 (Mus musculus, UniProt Q924N9)
T1 construct: Myc (C); His6 (C); made in house; host or cells: Pichia pastoris SMD1168
T1 sequence (Q924N9 31-274 limits assumed): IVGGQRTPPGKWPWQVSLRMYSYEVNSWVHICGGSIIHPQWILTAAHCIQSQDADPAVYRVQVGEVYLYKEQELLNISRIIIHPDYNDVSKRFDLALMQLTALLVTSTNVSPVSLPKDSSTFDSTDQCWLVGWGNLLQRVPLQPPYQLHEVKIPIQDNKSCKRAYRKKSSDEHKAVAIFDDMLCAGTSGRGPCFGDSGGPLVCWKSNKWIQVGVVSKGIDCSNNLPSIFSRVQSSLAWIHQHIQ


Legend:
recombinant ISP1 [1] = biological target: T1, recombinant ISP1; assay: Chromogenic substrate kinetics of recombinant ISP1; type: biochemical; conditions: for Hydrolysis of chromogenic substrate by rISP1: result in words; for Turnover No. (kcat) / Km / Michaelis Menton Constant (Km): substrate of recombinant ISP1, 25 mM Tris.Cl pH 8.0, room temperature; for Turnover No. (kcat): [E] 6.5 uM; for Km: read-out: Michaelis Menton Constant (Km)
Experimental: (§1) p-Nitroanilide substrates, Valine-Proline-Arginine-Amino methyl coumarin (VPR-AMC), Benzamidine Hydrochloride, TLCK (N -p-tosyl-L-lysine chloromethyl ketone), APMSF (4-Amidino-Phenyl)-Methane-Sulfonyl Fluoride), Trypsin Soybean Inhibitor (TSI) and Gabexate mesylate were obtained from Sigma Aldrich and Co. Oakville, ON Canada. Chromogenic assays were performed using the p-Nitroanilide/methyl-naphthylamide conjugated peptidic substrates. The reaction conditions used were: 25 mM Tris.Cl (pH 8.0) buffer with 10 mM EDTA reaction buffer, in a total reaction volume of 0.5 mL including varying concentrations of the substrates and enzyme sample. The reactions were done at room temperature in a glass cuvette (1 cm path length), and scanned at wavelength of 405 nm (in case of p-nitroanilide conjugated substrates) and 540 nm (in case of methyl-naphthylamide substrates) using a spectrophotometer. 1 Unit of enzyme is defined as the amount of enzyme capable of the breakdown of 1 micromole of substrate/min.
(§2) The catalytic activity of recombinant ISP1 with various small chromogenic peptide substrates was characterized by measuring enzyme cleavage at differing substrate concentrations and plotting enzyme activity [V] vs. substrate concentration [S] and calculating Michaelis Menten constant (Km). The Km was calculated using the Michaelis Menten equation (Km = [S] at ½ Vmax). Sigma plot was used for plotting the values obtained and determining Michaelis Menten Constant (Km). Inhibition of proteolytic activity of recombinant ISP1 was determined by measuring enzyme activity in the presence of varying concentrations of serine proteinase inhibitors. 2 mM BAPNA and 150 uM VPR-AMC were employed for enzyme assays in these inhibition studies. Sigma plot was used for plotting the values obtained in order to determine dissociation constant (Ki). Enzyme concentration [E] used for these experiments was 6.5 uM. This value was employed for calculating turnover number (kcat) and enzyme efficiency represented by kcat/Km ratio.

recombinant ISP1 [2] = biological target: T1, recombinant ISP1; assay: Inhibition of recombinant ISP1 by general serine proteinase inhibitors; type: biochemical; conditions: for Effect on enzyme activity of rISP1: 2 mM BAPNA as well as 150 µM VPR-AMC as substrate, result in words; for Ki: read-out: Ki (Apparent Ki)
Experimental: as §1, §2

Row | Molecule | Hydrolysis of chromogenic substrate by rISP1 (recombinant ISP1 [1]) | Turnover No. (kcat) (recombinant ISP1 [1]) | Effect on enzyme activity of rISP1 (recombinant ISP1 [2]) | further results
1 | COc1cc(NC(=O)C(CCCNC(=N)N)NC(=O)C(CCCNC(=N)N)NC(=O)C(CCCNC(=N)N)NC(=O)OCc2ccccc2)cc2ccccc12 (stereo not shown) [N-CBZ-arginine-arginine-arginine-4-methoxy naphthylamide] | hydrolyzed | 0.7 s⁻¹ | – | Km (recombinant ISP1 [1]; listed as RRRmN): ~100 µM; Km (recombinant ISP1 [1]): 99 µM
2 | C[C@H](N)C(=O)Nc1ccc([N+](=O)[O-])cc1 [Alanine p-nitroanilide] | no reaction | Nil | – | Michaelis Menton Constant (Km) (recombinant ISP1 [1]): Nil
3 | N=C(N)c1ccccc1 [Benzamidine Hydrochloride] | – | – | no noticeable effect | Ki (Apparent Ki) (recombinant ISP1 [2]; substrate BAPNA (2 mM)): No inhibition
4 | O=S(=O)(F)Cc1ccccc1 [PMSF] | – | – | inhibited the enzyme activity; also recorded: strong inhibitory activity | Ki (recombinant ISP1 [2]; substrate VPR-AMC (0.15 mM)): 340 µM
5 | Aprotinin | – | – | no noticeable effect | Ki (Apparent Ki) (recombinant ISP1 [2]; substrate BAPNA (2 mM)): No inhibition
6 | Cl.N=C(N)NCCC[C@H](NC(=O)c1ccccc1)C(=O)Nc1ccc([N+](=O)[O-])cc1 [N-Benzoyl Argininep-nitroanilide (BAPNA), N-Benzoyl-L- arginine p-nitroanilide hydrochloride] | hydrolyzed | 2.2 s⁻¹ | – | Km (recombinant ISP1 [1]): 610 µM
7 | CC[C@H](C)[C@H](NC(=O)c1ccccc1)C(=O)N[C@@H](Cc1ccccc1)C(=O)N[C@@H](CCCCN)C(=O)Nc1ccc([N+](=O)[O-])cc1.Cl [N-Benzoyl-isoleucine-phenylalanine-lysine p-nitroanilide hydrochloride] (Bz-Ile-Phe-Lys-pNA) | hydrolyzed | 3.9 s⁻¹ | – | Km (recombinant ISP1 [1]): 9600 µM
8 | CC(C)C[C@H](NC(=O)[C@@H](NC(=O)N[C@@H](Cc1ccccc1)C(=O)O)[C@@H]1CCN=C(N)N1)C(=O)N[C@H](C=O)Cc1ccccc1 [Chymostatin] | – | – | inhibited the enzyme activity | Effect on enzyme activity of rISP1 (recombinant ISP1 [2]; listed as chymostatin): strong inhibitory activity; Ki (recombinant ISP1 [2]; substrate BAPNA (2 mM)): 220 µM
9 | CC(=O)N[C@@H](CC(C)C)C(=O)N[C@@H](CC(C)C)C(=O)N[C@H](C=O)CCCNC(=N)N [Leupeptin] | – | – | no noticeable effect | Ki (Apparent Ki) (recombinant ISP1 [2]; substrate BAPNA (2 mM)): No inhibition
10 | α-1-Antitrypsin: general serine proteinase inhibitor | – | – | inhibited the enzyme activity | Effect on enzyme activity of rISP1 (recombinant ISP1 [2]; listed as α-1 antitrypsin): strong inhibitory activity; Ki (recombinant ISP1 [2]; substrate BAPNA (2 mM)): 2 µM
11 | CC(C)C[C@H](NC(=O)[C@H](N)C(C)C)C(=O)N[C@@H](CCCCN)C(=O)Nc1ccc([N+](=O)[O-])cc1.Cl [Valine-Leucine-Lysinep-nitroanilide, H-D-valine-leucine-lysine p-nitroanilide hydrochloride] (H-[dV]-Leu-Lys-pNA) | no enzyme activity | Nil | – | Michaelis Menton Constant (Km) (recombinant ISP1 [1]): Nil
12 | CC(C)[C@H](N)C(=O)N[C@@H](Cc1ccccc1)C(=O)N[C@@H](CCCCN)C(=O)Nc1ccc([N+](=O)[O-])cc1 [Valine-Phenylalanine-Lysine p-nitroanilide] (H-Val-Phe-Lys-pNA) | no enzyme activity | Nil | – | Michaelis Menton Constant (Km) (recombinant ISP1 [1]): Nil
13 | CC(C)[C@H](NC(=O)[C@H](Cc1ccccc1)NC(=O)c1ccccc1)C(=O)N[C@@H](CCCNC(=N)N)C(=O)Nc1ccc([N+](=O)[O-])cc1.Cl [N-Benzoyl-phenylalanine-valine-arginine p-nitroanilide hydrochloride] (Bz-Phe-Val-Arg-pNA) | hydrolyzed | 0.14 s⁻¹ | – | Km (recombinant ISP1 [1]): 360 µM
14 | CCOC(=O)c1ccc(OC(=O)CCCCCN=C(N)N)cc1.CS(=O)(=O)O [Gabexate mesylate] | – | – | inhibited the enzyme activity | Effect on enzyme activity of rISP1 (recombinant ISP1 [2]; listed as gabexate mesylate): strong inhibitory activity; Ki (recombinant ISP1 [2]; substrate BAPNA (2 mM)): 1700 µM
15 | Cc1ccc(S(=O)(=O)N[C@@H](CCCCN)C(=O)CCl)cc1 [TLCK, N -p-tosyl-L-lysine chloromethyl ketone] | – | – | inhibited the enzyme activity; also recorded: strong inhibitory activity | Ki (recombinant ISP1 [2]; substrate VPR-AMC (0.15 mM)): 30 µM
16 | CC(=O)O.Cc1ccc(S(=O)(=O)NCC(=O)N2CCC[C@H]2C(=O)N[C@@H](CCCCN)C(=O)Nc2ccc([N+](=O)[O-])cc2)cc1 [N(p-tosyl)-glycine-proline-lysine p-nitroanilide acetate] (Tos-Gly-Pro-Lys-pNA) | no enzyme activity | Nil | – | Michaelis Menton Constant (Km) (recombinant ISP1 [1]): Nil
17 | C[C@H](NC(=O)CCC(=O)O)C(=O)N[C@@H](C)C(=O)N[C@@H](C)C(=O)Nc1ccc([N+](=O)[O-])cc1 [N-Succinyl-alanine-alanine-alanine p-nitroanilide] | no reaction | Nil | – | Michaelis Menton Constant (Km) (recombinant ISP1 [1]): Nil
18 | Recombinant human SLPI: recombinant human Secretory Leukocyte Protease Inhibitor (protein, UniProt P03973 26-132, looked up) Antileukoproteinase: SGKSFKAGVCPPKKSAQCLRYKKPECQSDWQCPGKKRCCPDTCGIKCLDPVDTPNPTRRKPGKCPVTYGQCLMLNPPNFCEMDGQCKRDLKCCMGMCGKSCVSPVKA | – | – | no noticeable effect | Ki (Apparent Ki) (recombinant ISP1 [2]; substrate BAPNA (2 mM)): No inhibition
19 | Soybean Trypsin Inhibitor: general serine proteinase inhibitor (protein, UniProt P01070 25-205, looked up) Trypsin inhibitor A: DFVLDNEGNPLENGGTYYILSDITAFGGIRAAPTGNERCPLTVVQSRNELDKGIGTIISSPYRIRFIAEGHPLSLKFDSFAVIMLCVGIPTEWSVVEDLPEGPAVKIGENKDAMDGWFRLERVSDDEFNNYKLVFCPQQAEDDKCGDIGISIDHDDGTRRLVVSKNKPLVVQFQKLDKESL | – | – | inhibited the enzyme activity | Effect on enzyme activity of rISP1 (recombinant ISP1 [2]; listed as trypsin soybean inhibitor): strong inhibitory activity; Ki (recombinant ISP1 [2]; substrate BAPNA (2 mM)): 2.4 µM

— PMC3223204, “Implantation Serine Proteinase 1 Exhibits Mixed Substrate Specificity that Silences Signaling via Proteinase-Activated Receptors” (PLoS ONE, 2011)
